Measured values taken from ChEMBL document CHEMBL1158338, “Synthesis of (+/-)Abyssinone I and related compounds: Their anti-oxidant and cytotoxic activities” (Eur J Med Chem, 2009).
Active and inactive are the calls of the source.

Key:
[1] = test system: MCF7; assay: Cytotoxicity against human MCF7 cells at 25 to 150 uM after 72 hrs by MTT assay; type: functional, cell-based
[2] = test system: Radical scavenging activity; assay: Antioxidant activity assessed as DPPH radical scavenging activity at 200 ug after 30 mins by UV-visible spectrophotometry; type: functional
[3] = Antioxidant activity assessed as ferric ion reducing activity at 200 ug after 20 mins by UV-visible spectrophotometry; type: functional

Measured: Activity

CC1(C)CCc2cc(C3CC(=O)c4ccc(O)cc4O3)ccc2O1 (centres undefined)
active: [1] | [2] | [3]

COc1ccc(/C=C/C(=O)c2ccc(O)cc2O)cc1
active: [1] | [2] | [3]

CC1(C)CCc2cc(/C=C/C(=O)c3ccc(O)cc3O)ccc2O1
active: [1] | [2] | [3]

O=C(/C=C/c1ccc(O)cc1)c1ccc(O)cc1O
active: [1] | [2] | [3]

CC1(C)C=Cc2cc(C3CC(=O)c4ccc(O)cc4O3)ccc2O1 (centres undefined)
active: [1] | [2] | [3]

CC1(C)C=Cc2cc(/C=C/C(=O)c3ccc(O)cc3O)ccc2O1
active: [1] | [2] | [3]

COc1ccc(C2CC(=O)c3ccc(O)cc3O2)cc1CC=C(C)C (centres undefined)
active: [1] | [2] | [3]

CC(C)=CCc1cc(/C=C/C(=O)c2ccc(O)cc2O)ccc1O
active: [1] | [2] | [3]

CC(C)=CCOc1ccc(/C=C/C(=O)c2ccc(O)cc2O)cc1
active: [1] | [2] | [3]

CC(C)=CCc1cc(C2CC(=O)c3ccc(O)cc3O2)ccc1O (centres undefined)
active: [1] | [2] | [3]

O=C1C[C@@H](c2ccc(O)cc2)Oc2cc(O)ccc21
active: [1] | [2] | [3]

COc1ccc(C2CC(=O)c3ccc(O)cc3O2)cc1 (centres undefined)
active: [1] | [2] | [3]

COc1ccc(/C=C/C(=O)c2ccc(O)cc2O)cc1CC=C(C)C
active: [1] | [2] | [3]
